# According to US6903113B2, “Urea substituted imidazopyridines” (3M Innovative Properties Company, priority 2000, dated 2005):
# Counter-ions that a name gives are not always drawn.
# Experiments:
# interferon (α) = experiment: Cytokine Induction in Human Cells: interferon (α) by ELISA; type: cell-based; parameters: key to Lowest Effective Concentration Interferon: A “*” indicates that no induction was seen at any of the tested concentrations; conditions: human PBMC, 18 to 24 hours incubation, compounds generally tested at 30-0.014 μM; for minimal effective concentration: read-out: Lowest Effective Concentration Interferon
# Description: (§1) An in vitro human blood cell system is used to assess cytokine induction. Activity is based on the measurement of interferon and tumor necrosis factor (α) (IFN and TNF, respectively) secreted into culture media as described by Testerman et. al. In “Cytokine Induction by the Immunomodulators Imiquimod and S-27609”, Journal of Leukocyte Biology, 58, 365-372 (September, 1995).
# (§2) Whole blood from healthy human donors is collected by venipuncture into EDTA vacutainer tubes. Peripheral blood mononuclear cells (PBMC) are separated from whole blood by density gradient centrifugation using Histopaque®-1077. Blood is diluted 1:1 with Dulbecco's Phosphate Buffered Saline (DPBS) or Hank's Balanced Salts Solution (HBSS). The PBMC layer is collected and washed twice with DPBS or HBSS and resuspended at 4×10^6 cells/mL in RPMI complete. The PBMC suspension is added to 48 well flat bottom sterile tissue culture plates (Costar, Cambridge, Mass. or Becton Dickinson Labware, Lincoln Park, N.J.) containing an equal volume of RPMI complete media containing test compound.
# (§3) The compounds are solubilized in dimethyl sulfoxide (DMSO). The DMSO concentration should not exceed a final concentration of 1% for addition to the culture wells. The compounds are generally tested at concentrations ranging from 30-0.014 μM.
# (§4) The solution of test compound is added at 60 μM to the first well containing RPMI complete and serial 3 fold dilutions are made in the wells. The PBMC suspension is then added to the wells in an equal volume, bringing the test compound concentrations to the desired range (30-0.014 μM). The final concentration of PBMC suspension is 2×10^6 cells/mL. The plates are covered with sterile plastic lids, mixed gently and then incubated for 18 to 24 hours at 37° C. in a 5% carbon dioxide atmosphere.
# (§5) Following incubation the plates are centrifuged for 10 minutes at 1000 rpm (˜200×g) at 4° C. The cell-free culture supernatant is removed with a sterile polypropylene pipet and transferred to sterile polypropylene tubes. Samples are maintained at −30 to −70° C. until analysis. The samples are analyzed for interferon (α) by ELISA and for tumor necrosis factor (α) by ELISA or IGEN Assay
# Interferon (α) concentration is determined by ELISA using a Human Multi-Species kit from PBL Biomedical Laboratories, New Brunswick, N.J. Results are expressed in pg/mL.
# (§6) The table below lists the lowest concentration found to induce interferon and the lowest concentration found to induce tumor necrosis factor for each compound.
# [1] = tested on: tumor necrosis factor (α); experiment: Cytokine Induction in Human Cells: tumor necrosis factor (α) by ELISA or IGEN Assay; type: cell-based; parameters: key to Lowest Effective Concentration Tumor Necrosis Factor: A “*” indicates that no induction was seen at any of the tested concentrations; conditions: human PBMC, 18 to 24 hours incubation, compounds generally tested at 30-0.014 μM; for minimal effective concentration: read-out: Lowest Effective Concentration Tumor Necrosis Factor
# Description: as §1, §2, §3, §4, §5
# Tumor necrosis factor (α) (TNF) concentration is determined using ELISA kits available from Biosource International, Camarillo, Calif. Alternately, the TNF concentration can be determined by Origen® M-Series Immunoassay and read on an IGEN M-8 analyzer from IGEN International, Gaithersburg, Md. The immunoassay uses a human TNF capture and detection antibody pair from Biosource International, Camarillo, Calif. Results are expressed in pg/mL.
# as §6
melting point [°C],SMILES,minimal effective concentration (interferon (α)) [µM],minimal effective concentration [1] [µM],Lowest Effective Concentration Tumor Necrosis Factor [1],Lowest Effective Concentration Interferon (interferon (α))
163.7 to 167,"Cc1nc(N)c2ncn(CCCCNC(=O)N3CCOCC3)c2c1C [Example 11, N-[4-(4-amino-6,7-dimethyl-1H-imidazo[4,5-c]pyridin-1-yl)butyl]morpholin-4-ylcarboxamide]",–,–,–,–
158.1 to 160.5,"CCOCc1nc2c(N)nc(C)c(C)c2n1CCC1CCN(C(=O)N2CCOCC2)CC1 [Example 12, 2-(ethoxymethyl)-6,7-dimethyl-1-{2-[1-(morpholin-4-ylcarbonyl)piperidin-4-yl]ethyl}-1H-imidazo[4,5-c]pyridin-4-amine]",–,–,–,–
165 to 167,"CCOCc1nc2c(N)nc(C)c(C)c2n1CCCCNS(C)(=O)=O [Example 8, N-{4-[4-amino-2-(ethoxymethyl)-6,7-dimethyl-1H-imidazo[4,5-c]pyridin-1-yl]butyl}methanesulfonamide]",0.04,10,–,–
195.8 to 196.8,"CCCCc1nc2c(N)nc(C)c(C)c2n1CCCCNC(=O)Nc1ccccc1 [Example 4, N-[4-(4-Amino-2-butyl-6,7-dimethyl-1H-imidazo[4,5-c]pyridin-1-yl)butyl]-N′-phenylurea]",0.12,0.37,–,–
160 to 160.8,"CCCCc1nc2c(N)nc(C)c(C)c2n1CCCCNC(=S)Nc1ccccc1 (hydrate or solvate) [Example 5, N-[4-(4-Amino-2-butyl-6,7-dimethyl-1H-imidazo[4,5-c]pyridin-1-yl)butyl]-N′-phenylthiourea Hydrate]",–,–,–,–
–,CCOCc1nc2c(N)nc(C)c(C)c2n1CCC1CCN(C(=S)Nc2ccccc2)CC1 [Example 71],0.37,3.33,–,–
–,Cc1nc(N)c2ncn(CCCCNC(=O)NC(C)(C)C)c2c1C [Example 17],30,–,*,–
–,Cc1nc(N)c2ncn(CCCCNC(=O)Nc3ccccc3)c2c1C [Example 19],10,30,–,–
–,CCOCc1nc2c(N)nc(C)cc2n1CCCCNC(=O)Nc1cccc(C(C)=O)c1 [Example 42],10,10,–,–
–,CCOCc1nc2c(N)nc(C)c(C)c2n1CCC1CCN(C(=O)NC(C)(C)C)CC1 [Example 55],3.33,10,–,–
–,Cc1nc(N)c2ncn(CCCCNC(=O)NC3CCCCC3)c2c1C [Example 20],30,–,*,–
–,CCOCc1nc2c(N)nc(C)c(C)c2n1CCC1CCN(C(=S)Nc2ccc(OC)cc2)CC1 [Example 73],0.12,1.11,–,–
–,"CCOCc1nc2c(N)nc(C)cc2n1CCCCNC(=S)NC(=O)c1ccco1 [Example 53, N-{4-[4-amino-2-(ethoxymethyl)-6-methyl-1H-imidazo[4,5-c]pyridin-1-yl]butyl}-N′-(2-furoyl)thiourea]",0.37,3.33,–,–
–,CCOCc1nc2c(N)nc(C)cc2n1CCCCNC(=O)Nc1cccc(SC)c1 [Example 44],3.33,10,–,–
–,CCCCNC(=O)NCCCCn1c(COCC)nc2c(N)nc(C)cc21 [Example 38],3.33,30,–,–
128.9 to 129.7,"Cc1nc(N)c2nc(C)n(CCCNC(=O)N3CCOCC3)c2c1C [Example 13, N-[3-(4-amino-2,6,7-trimethyl-1H-imidazo[4,5-c]pyridin-1-yl)propyl]morpholin-4-ylcarboxamide]",–,–,–,–

melting point [°C],SMILES,minimal effective concentration (interferon (α)) [µM],minimal effective concentration [1] [µM],Lowest Effective Concentration Tumor Necrosis Factor [1],Lowest Effective Concentration Interferon (interferon (α))
156.5 to 159.5,"CCOCc1nc2c(N)nc(C)cc2n1CCCCNC(=O)N1CCOCC1 (as salt: salt) [Example 10, N-{4-[4-amino-2-(ethoxymethyl)-6-methyl-1H-imidazo[4,5-c]pyridin-1-yl]butyl}morpholin-4-ylcarboxamide]",–,–,–,–
–,CCOCc1nc2c(N)nc(C)cc2n1CCCCNC(=O)NC(C)C [Example 36],1.11,30,–,–
–,"CCOCc1nc2c(N)nc(C)cc2n1CCCCNC(=O)N[C@@H]1C[C@H]1c1ccccc1 (relative stereo) [Example 46, N-{4-[4-amino-2-(ethoxymethyl)-6-methyl-1H-imidazo[4,5-c]pyridin-1-yl]butyl}-N′-[(1R*,2S*)-2-phenylcyclopropyl]urea]",3.33,10,–,–
133.1 to 133.7,"CCCCc1nc2c(N)nc(C)c(C)c2n1CCCCNS(=O)(=O)c1ccc(F)cc1 (hydrate or solvate) [Example 3, N-[4-(4-Amino-2-butyl-6,7-dimethyl-1H-imidazo[4,5-c]pyridin-1-yl)butyl]-4-fluorobenzenesulfonamide Hydrate]",–,–,–,–
140.5 to 142.2,"CCOCc1nc2c(N)nc(C)c(C)c2n1CCCNC(=O)N1CCOCC1 [Example 14, N-{3-[4-amino-2-(ethoxymethyl)-6,7-dimethyl-1H-imidazo[4,5-c]pyridin-1-yl]propyl}morpholin-4-ylcarboxamide]",–,–,–,–
–,COc1cccc(NC(=O)NCCCCn2cnc3c(N)nc(C)c(C)c32)c1 [Example 22],–,–,*,*
–,CCOCc1nc2c(N)nc(C)cc2n1CCCCNC(=S)Nc1ccccc1 [Example 50],0.37,3.33,–,–
–,CCOCc1nc2c(N)nc(C)c(C)c2n1CCC1CCN(C(=S)NCCc2ccccc2)CC1 [Example 72],0.37,1.11,–,–
–,CSc1cccc(NC(=O)NCCCCn2cnc3c(N)nc(C)c(C)c32)c1 [Example 25],–,3.33,–,*
–,CCOCc1nc2c(N)nc(C)cc2n1CCCCNC(=O)Nc1ccc(N(C)C)cc1 [Example 43],0.041,10,–,–
–,COc1ccc(NC(=S)NCCCCn2cnc3c(N)nc(C)c(C)c32)cc1 [Example 35],3.33,30,–,–
–,Cc1nc(N)c2ncn(CCCCNC(=O)NS(=O)(=O)c3ccccc3)c2c1C [Example 29],–,–,*,*
219 to 221,"Cc1nc(N)c2nc(C)n(CCNC(=O)N3CCOCC3)c2c1C [Example 15, N-[2-(4-amino-2,6,7-trimethyl-1H-imidazo[4,5-c]pyridin-1-yl)ethyl]morpholin-4-ylcarboxamide]",–,–,–,–
–,CCOCc1nc2c(N)nc(C)c(C)c2n1CCC1CCN(C(=O)Nc2cccc(C(C)=O)c2)CC1 [Example 62],0.37,1.11,–,–
–,"CCCCc1nc2c(N)nc(C)c(C)c2n1CCCCNS(=O)(=O)c1ccc(F)cc1 [Example 3, N-[4-(4-Amino-2-butyl-6,7-dimethyl-1H-imidazo[4,5-c]pyridin-1-yl)butyl]-4-fluorobenzenesulfonamide Hydrate]",0.01,0.37,–,–
–,"Cc1nc(N)c2ncn(CCCCNC(=O)N3CCOCC3)c2c1C [Example 27, N-[4-(4-amino-6,7-dimethyl-1H-imidazo[4,5-c]pyridin-1-yl)butyl]morpholin-4-ylcarboxamide]",–,–,*,*
